These results are taken from patent US20240368174A1, “Antiviral Heterocyclic Compounds” (Enanta Pharmaceuticals, Inc., priority 2023, published 2024).

What is called pEC50 is −log10 of the EC50, conventionally taken in molar units.

pEC50: −log10 of the molar value.

In assay [1] the test system is genotype A, “Long” strain RSV. Nature of the assay: RSV-A assay (CPE, ATPlite readout in Hep-2 cells). In kind it is cell-based, Human respiratory syncytial virus. As to conditions: human respiratory syncytial virus, activity class. An outline of the steps:
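ATPlite luminescence (cellular ATP) served as the measure of cell health after 5 days of infection. Hep-2 cells at 8,000 per well received duplicate 2-fold compound dilutions plus virus at MOI 0.1, and EC50 was calculated from CPE protection.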
For orientation: ATP-based viability assays read luminescence as a measure of living cells.

In assay [2] the test system is HMPV clinical isolate A2 strain TN 94-49. Nature of the assay: HMPV antiviral assay, Method 1 (LLC-MK2 cells, ATP-Lite). The class given is cell-based. Particulars: human metapneumovirus, hMPV A2 TN/94-49, LLC-MK2 cells. An outline of the steps: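 LLC-MK2 cells (5,000/well) infected in suspension with HMPV A2 TN 94-49 at MOI 0.005 in serum-free OptiMEM with 2 μg/mL final TPCK-trypsin, compounds in duplicate from 2 μM top, 2.5-fold, 10 points. After 7 days at 37° C, cell health by ATP-Lite luminescence normalised to virus and cell controls; EC50 from four-parameter fit.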

For assay [3] the test system is unchanged. In words: HMPV antiviral assay, Method 2 (LLC-MK2 cells with CP-100-356, ATP-Lite). In kind it is cell-based. As to conditions: human metapneumovirus; hMPV A2 TN/94-49, LLC-MK2 cells with CP-100-356, Method 2. In a few lines:
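LLC-MK2 rhesus kidney cells (5,000/well) infected in suspension with HMPV A2 TN 94-49 at MOI 0.16, in serum-free medium with final 2 μg/mL TPCK-trypsin and 2 μM CP-100-356. Compounds tested in duplicate from 200 nM, 2.5-fold, 10 points; 7 days at 37 °C. Cell health by ATP-Lite luminescence; EC50 by four-parameter fit.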

The next assay concerns HRSV. Particulars: prophylactic use, high risk infants; cited from earlier work.

For the compound `COc1cc(C(=O)NC[C@](O)(c2cc3c(c(-c4cc(C)c(F)cc4F)n2)OC[C@]3(C)C(N)=O)C2CC2)cc2cn(C3CC3)nc12` [Example 385], the pEC50 was over 6.70 in assay [1], over 6.30 in assay [2] and over 6.70 in assay [3].

For `COc1cc(C(=O)NC[C@](O)(c2cc3c(c(-c4cc(C(F)F)c(F)cc4F)n2)OC[C@]3(C)C(N)=O)C2CC2)cc2cn(C3CC3)nc12` [Example 393], the pEC50 in assay [1] is over 6.70; in assay [2] it was over 6.30; in assay [3] it was over 6.70.

In the case of `COc1cc(C(=O)NC[C@](O)(c2cc3c(c(-c4cc(C(F)(F)F)c(F)cc4F)n2)OC[C@]3(C)C(N)=O)C2CC2)cc2cn(C3CC3)nc12` [Example 394], the negative-log EC50 (pEC50) in assay [1] was over 6.70; in assay [2], over 6.30; in assay [3] it was over 6.70.

For `COc1cc(C(=O)NC[C@](O)(c2cc3c(c(-c4ccc5c(c4Cl)OC(F)(F)O5)n2)OC[C@]3(C)C(N)=O)C2CC2)cc2cn(C(F)F)nc12` [Example 457], the pEC50 in assay [1] is over 6.70; in assay [2], over 6.30; in assay [3], over 6.70.

Take “Palivizumab: "a monoclonal antibody that is approved for prophylactic use, but its use is limited due to its high price"”: the “effective in reducing hospitalizations” value in the assay on HRSV is reported as 60%.
